The values below come from US8445503B2, “Inhibitors of polo-like kinase” (Elan Pharmaceuticals, Inc., priority 2009, dated 2013).

Common to all, as to assay type: biochemical
For one test, the target named is T1, GST-PLK3 (Homo sapiens, UniProt Q9H4B4).
T1 construct: purchased CarnaBio
Briefly: PLK TR-FRET peptide assay, PLK3. As to conditions: read-out: Plk3 IC50. On the technique in general: Time-resolved FRET reads energy transfer from a long-lived donor to a nearby acceptor.

Another test deals with GST-PLK1 (Homo sapiens, UniProt P53350). Briefly: PLK TR-FRET peptide assay, PLK1. As to conditions: read-out: Plk1 IC50.
Chain of GST-PLK1 (P53350 whole entry): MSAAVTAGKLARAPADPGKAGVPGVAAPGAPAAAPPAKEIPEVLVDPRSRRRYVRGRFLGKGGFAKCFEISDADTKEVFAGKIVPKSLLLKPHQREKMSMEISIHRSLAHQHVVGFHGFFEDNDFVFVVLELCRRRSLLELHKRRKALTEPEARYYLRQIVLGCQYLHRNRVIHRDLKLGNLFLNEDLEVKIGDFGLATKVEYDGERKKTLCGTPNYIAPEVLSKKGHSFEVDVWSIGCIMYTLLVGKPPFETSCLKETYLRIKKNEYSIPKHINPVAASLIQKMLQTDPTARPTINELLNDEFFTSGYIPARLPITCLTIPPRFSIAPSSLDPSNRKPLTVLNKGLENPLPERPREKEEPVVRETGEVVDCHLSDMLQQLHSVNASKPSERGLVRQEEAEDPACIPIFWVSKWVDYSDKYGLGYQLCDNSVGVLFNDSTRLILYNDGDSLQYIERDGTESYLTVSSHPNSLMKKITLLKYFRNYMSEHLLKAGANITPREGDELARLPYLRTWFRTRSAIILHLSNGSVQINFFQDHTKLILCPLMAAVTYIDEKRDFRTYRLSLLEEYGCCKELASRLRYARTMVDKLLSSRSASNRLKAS
Another test addresses T2, GST-PLK2 (Homo sapiens, UniProt Q9NYY3).
T2 construct: purchased CarnaBio
Briefly: PLK TR-FRET peptide assay, PLK2. As to conditions: for IC50: PLK TR-FRET peptide assay, GST-PLK2, read-out: Plk2 IC50; for PLK2 activity relative to the opposite enantiomer / other isomer: comparison of resolved enantiomers, used to assign absolute configuration.

[1] abbreviates: PLK TR-FRET peptide assay, GST-PLK3.

Where two headings read alike, the source gives them in different places.

As usually defined, the IC50 is the concentration at which inhibition is half-maximal.

T1 sequence (Q9H4B4 whole entry): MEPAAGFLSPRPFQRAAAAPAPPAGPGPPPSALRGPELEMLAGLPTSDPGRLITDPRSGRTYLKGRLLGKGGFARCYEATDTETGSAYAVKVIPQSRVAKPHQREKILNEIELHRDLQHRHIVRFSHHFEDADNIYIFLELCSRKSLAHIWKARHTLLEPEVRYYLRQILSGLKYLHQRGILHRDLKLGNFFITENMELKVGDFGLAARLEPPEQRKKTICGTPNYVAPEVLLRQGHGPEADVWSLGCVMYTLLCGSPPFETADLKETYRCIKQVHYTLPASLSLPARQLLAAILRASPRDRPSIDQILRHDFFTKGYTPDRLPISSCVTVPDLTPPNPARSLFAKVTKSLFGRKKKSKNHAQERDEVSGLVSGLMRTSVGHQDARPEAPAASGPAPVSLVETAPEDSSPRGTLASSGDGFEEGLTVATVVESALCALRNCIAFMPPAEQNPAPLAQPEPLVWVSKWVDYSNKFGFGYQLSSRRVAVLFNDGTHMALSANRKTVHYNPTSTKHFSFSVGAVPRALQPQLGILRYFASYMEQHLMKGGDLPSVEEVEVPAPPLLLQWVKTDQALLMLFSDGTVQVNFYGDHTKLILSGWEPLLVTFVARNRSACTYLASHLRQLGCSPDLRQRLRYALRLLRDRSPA
T2 sequence (Q9NYY3 whole entry): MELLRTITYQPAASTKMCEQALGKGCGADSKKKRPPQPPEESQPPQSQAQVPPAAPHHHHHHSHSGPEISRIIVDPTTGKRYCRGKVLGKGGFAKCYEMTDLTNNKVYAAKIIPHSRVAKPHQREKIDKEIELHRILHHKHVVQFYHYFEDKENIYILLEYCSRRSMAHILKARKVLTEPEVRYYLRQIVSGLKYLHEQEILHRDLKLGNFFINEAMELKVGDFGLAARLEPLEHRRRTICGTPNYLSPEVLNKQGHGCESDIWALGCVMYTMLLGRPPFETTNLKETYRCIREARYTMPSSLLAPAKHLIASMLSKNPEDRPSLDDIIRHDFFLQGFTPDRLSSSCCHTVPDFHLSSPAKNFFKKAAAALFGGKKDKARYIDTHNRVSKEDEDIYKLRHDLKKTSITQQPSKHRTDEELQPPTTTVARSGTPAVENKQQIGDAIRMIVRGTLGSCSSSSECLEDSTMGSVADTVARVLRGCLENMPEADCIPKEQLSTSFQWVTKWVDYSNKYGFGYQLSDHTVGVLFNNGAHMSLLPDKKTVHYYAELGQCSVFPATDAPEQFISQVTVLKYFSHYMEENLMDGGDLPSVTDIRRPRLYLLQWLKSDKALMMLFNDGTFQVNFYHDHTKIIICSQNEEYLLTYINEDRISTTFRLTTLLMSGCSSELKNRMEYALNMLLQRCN

Regarding `CC[C@@H]1C(=O)N(C)c2cnc(-n3ccnc3-c3ccc(F)cc3)nc2N1CCC(F)(F)F` [Example 233], the IC50 on GST-PLK3 (setting [1]) fell in the range of 10 to 50 µM.
Regarding `CCC12COCCN1c1nc(-c3cn[nH]c3-c3ccc(F)cc3F)ncc1N(C)C2=O` (racemic) [Example 405, 2-(5-(2,4-difluorophenyl)-1H-pyrazol-4-yl)-6a-ethyl-5-methyl-6a,7,9,10-tetrahydro-[1,4]oxazino[3,4-h]pteridin-6(5H)-one], the IC50 on GST-PLK1 was 10 to 50 µM; on GST-PLK2 it was below 1 µM; at GST-PLK3 (setting [1]), 1 to 10 µM.
As for `CC[C@@H]1C(=O)N(C)c2cnc(-c3cn[nH]c3)nc2N1C1CCCC1` [Example 7, (R)-8-cyclopentyl-7-ethyl-5-methyl-2-(1H-pyrazol-4-yl)-7,8-dihydropteridin-6(5H)-one], the IC50 at GST-PLK1 and at GST-PLK2 was below 1 µM throughout.
With `CC[C@@H]1C(=O)N(C)c2cnc(-n3ccnc3)nc2N1C(C)C` [Example 22, (R)-7-ethyl-2-(1H-imidazol-1-yl)-8-isopropyl-5-methyl-7,8-dihydropteridin-6(5H)-one], the IC50 on GST-PLK1 is 1 to 10 µM; on GST-PLK2, below 1 µM; at GST-PLK3 (setting [1]) it was above 50 µM.
Take `CC[C@@H]1C(=O)N(C)c2cnc(-n3cc(C(=O)N(C)C)cn3)nc2N1C1CCCC1` [Example 39, (R)-1-(8-cyclopentyl-7-ethyl-5-methyl-6-oxo-5,6,7,8-tetrahydropteridin-2-yl)-N,N-dimethyl-1H-pyrazole-4-carboxamide]: the IC50 fell in the range of 1 to 10 µM on GST-PLK1, 1 to 10 µM at GST-PLK2 and 10 to 50 µM at GST-PLK3 (setting [1]).
In the case of `CC[C@@H]1C(=O)N(C)c2cnc(-n3cc(C(=O)NC)cn3)nc2N1C1CCCC1` [Example 40, (R)-1-(8-cyclopentyl-7-ethyl-5-methyl-6-oxo-5,6,7,8-tetrahydropteridin-2-yl)-N-methyl-1H-pyrazole-4-carboxamide], the IC50 is below 1 µM on GST-PLK1 and 10 to 50 µM on GST-PLK3 (setting [1]).
For `CC[C@@]12COCCN1c1nc(-n3ccnc3-c3nccs3)ncc1N(C)C2=O` [Example 387, (S)-6a-ethyl-5-methyl-2-(2-(thiazol-2-yl)-1H-imidazol-1-yl)-6a,7,9,10-tetrahydro-[1,4]oxazino[3,4-h]pteridin-6(5H)-one], the IC50 at GST-PLK1 was above 50 µM; at GST-PLK2 it was below 1 µM; on GST-PLK3 (setting [1]), above 50 µM. Besides, at GST-PLK2, the “PLK2 activity relative to the opposite enantiomer / other isomer” value was “more active compound”.
In the case of `CCC1C(=O)N(C)c2cnc(-n3ccnc3-c3ccc(F)cc3)nc2N1c1ccccc1` (centres unmarked) [Example 291, 7-ethyl-2-(2-(4-fluorophenyl)-1H-imidazol-1-yl)-5-methyl-8-phenyl-7,8-dihydropteridin-6(5H)-one], the IC50 was 1 to 10 µM at GST-PLK1, below 1 µM at GST-PLK2 and 1 to 10 µM at GST-PLK3 (setting [1]).
As to `CC[C@]12COCCN1c1nc(-c3cn[nH]c3-c3ccc(F)cc3F)ncc1N(C)C2=O` [Example 412, (R)-2-(5-(2,4-difluorophenyl)-1H-pyrazol-4-yl)-6a-ethyl-5-methyl-6a,7,9,10-tetrahydro-[1,4]oxazino[3,4-h]pteridin-6(5H)-one], the IC50 was above 50 µM on GST-PLK1, 1 to 10 µM at GST-PLK2 and above 50 µM on GST-PLK3 (setting [1]).
For `CC[C@@H]1C(=O)N(C)c2cnc(-c3sc(N)nc3-c3ccc(F)cc3)nc2N1C(C)C` [Example 318, (R)-2-(2-amino-4-(4-fluorophenyl)thiazol-5-yl)-7-ethyl-8-isopropyl-5-methyl-7,8-dihydropteridin-6(5H)-one], the IC50 at GST-PLK1, at GST-PLK2 and at GST-PLK3 (setting [1]) was below 1 µM in each case.
With `CC[C@@H]1C(=O)N(C)c2cnc(-c3cn[nH]c3-c3ccccn3)nc2N1C1CCCC1` [Example 306, (R)-8-cyclopentyl-7-ethyl-5-methyl-2-(5-(pyridin-2-yl)-1H-pyrazol-4-yl)-7,8-dihydropteridin-6(5H)-one], the IC50 at GST-PLK1, at GST-PLK2 and at GST-PLK3 (setting [1]) was below 1 µM throughout.
For the compound `CC[C@@]12COCCN1c1nc(-c3cccnc3-c3ccccc3)ncc1N(C)C2=O` [Example 403, (S)-6a-ethyl-5-methyl-2-(2-phenylpyridin-3-yl)-6a,7,9,10-tetrahydro-[1,4]oxazino[3,4-h]pteridin-6(5H)-one], the values for the IC50 at GST-PLK1, at GST-PLK2 and at GST-PLK3 (setting [1]) were 10 to 50 µM, below 1 µM and 1 to 10 µM, respectively.
With `CC[C@@]12COCCN1c1nc(-n3ccnc3-c3ccc(F)cc3F)ncc1N(C)C2=O` [Example 376, (S)-2-(2-(2,4-difluorophenyl)-1H-imidazol-1-yl)-6a-ethyl-5-methyl-6a,7,9,10-tetrahydro-[1,4]oxazino[3,4-h]pteridin-6(5H)-one], the half-maximal inhibitory concentration (IC50) on GST-PLK1 is 10 to 50 µM; on GST-PLK2, below 1 µM; on GST-PLK3 (setting [1]), 10 to 50 µM. The “PLK2 activity relative to the opposite enantiomer / other isomer” value on GST-PLK2 is “more active compound”.
Turning to `CC[C@@]12CCCN1c1nc(-n3ncnc3-c3ccccc3)ncc1N(C)C2=O` [Example 189, (S)-6a-ethyl-5-methyl-2-(5-phenyl-1H-1,2,4-triazol-1-yl)-6a,7,8,9-tetrahydropyrrolo[2,1-h]pteridin-6(5H)-one], the IC50 at GST-PLK1 is 1 to 10 µM; at GST-PLK2 it was below 1 µM; at GST-PLK3 (setting [1]), 1 to 10 µM.
For the compound `CC[C@@H]1C(=O)N(C)c2cnc(-n3cc(C(=O)O)cn3)nc2N1C1CCCC1` [Example 44, (R)-1-(8-cyclopentyl-7-ethyl-5-methyl-6-oxo-5,6,7,8-tetrahydropteridin-2-yl)-1H-pyrazole-4-carboxylic acid], the results for the IC50 on GST-PLK1, at GST-PLK2 and on GST-PLK3 (setting [1]) were below 1 µM, 1 to 10 µM and 1 to 10 µM, respectively.
For the compound `CC[C@@H]1C(=O)N(C)c2cnc(-n3cnc(C(=O)NC)c3)nc2N1C1CCCC1` [Example 46, (R)-1-(8-cyclopentyl-7-ethyl-5-methyl-6-oxo-5,6,7,8-tetrahydropteridin-2-yl)-N-methyl-1H-imidazole-4-carboxamide], the IC50 on GST-PLK1 is below 1 µM; on GST-PLK2, below 1 µM; at GST-PLK3 (setting [1]), 1 to 10 µM.
In the case of `CCC1C(=O)Nc2cnc(-n3ccnc3-c3ccccc3)nc2N1NC(=O)OC(C)(C)C` (centres unmarked) [Example 274, tert-Butyl 7-ethyl-6-oxo-2-(2-phenyl-1H-imidazol-1-yl)-6,7-dihydropteridin-8(5H)-ylcarbamate], the IC50 on GST-PLK1, at GST-PLK2 and at GST-PLK3 (setting [1]) was above 50 µM in each case.
Regarding `CC[C@@H]1C(=O)N(C)c2cnc(-n3ccnc3-c3ccc(S(C)(=O)=O)cc3)nc2N1C1CCCC1` [Example 79, (R)-8-cyclopentyl-7-ethyl-5-methyl-2-(2-(4-(methylsulfonyl)phenyl)-1H-imidazol-1-yl)-7,8-dihydropteridin-6(5H)-one], the half-inhibitory concentration (IC50) on GST-PLK1 was 1 to 10 µM; on GST-PLK2, below 1 µM; at GST-PLK3 (setting [1]) it was 10 to 50 µM.
For `CC[C@@]12COCCN1c1nc(-c3ccncc3-c3ccccc3)ncc1N(C)C2=O` [Example 395], the IC50 on GST-PLK1 is below 1 µM; on GST-PLK2, below 1 µM; on GST-PLK3 (setting [1]), 1 to 10 µM.
Take `CC[C@@]12COCCN1c1nc(-n3ccnc3-c3ccccc3)ncc1N(C)C2=O` (single isomer, unassigned) [Example 314]: the IC50 on GST-PLK1 was above 50 µM; on GST-PLK2, below 1 µM; on GST-PLK3 (setting [1]) it was 1 to 10 µM.
With `CCC1C(=O)N(C)c2cnc(-n3ccnc3-c3ccc(F)cc3)nc2N1c1ccc(F)cc1` (centres unmarked) [Example 324], on GST-PLK3 (setting [1]), the IC50 was 1 to 10 µM.
Still for that read-out and setting: the same measure for `CC[C@@H]1C(=O)N(C)c2cnc(-n3ccnc3-c3ccccc3)nc2N1C1CCOC1` (some centres unmarked) [Example 203]: 1 to 10 µM.
Turning to `CC[C@@]12COCCN1c1nc(-n3ccnc3-c3ccccc3)ncc1NC2=O` [Example 418, (S)-6a-ethyl-2-(2-phenyl-1H-imidazol-1-yl)-6a,7,9,10-tetrahydro-[1,4]oxazino[3,4-h]pteridin-6(5H)-one], on GST-PLK2, the “PLK2 activity relative to the opposite enantiomer / other isomer” value is listed as “more active compound”.
Consider `CC[C@@H]1C(=O)N(C)c2cnc(-n3ccnc3-c3ccccc3)nc2N1C1CCOC1` (some centres unmarked) [Example 182], for which the concentration for half-maximal inhibition (IC50) at GST-PLK3 (setting [1]) was below 1 µM.
With `CC[C@@H]1C(=O)N(C)c2cnc(-n3ccc4ccccc43)nc2N1C1CCCC1` [Example 385], the IC50 at GST-PLK3 (setting [1]) is above 50 µM.
Same read-out and setting: then `CN1C(=O)C(CC(F)(F)F)N(CCC(F)(F)F)c2nc(-n3ccnc3-c3ccc(F)cc3)ncc21` (centres unmarked) [Example 255], with 10 to 50 µM; and `CC[C@@H]1C(=O)N(C)c2cnc(-n3ccnc3-c3ccc(F)cc3)nc2N1C1CCC(F)(F)C1` (some centres unmarked) [Example 242], with 1 to 10 µM; and `CC[C@@H]1C(=O)N(C)c2cnc(-n3ccnc3-c3ccc(F)cc3)nc2N1C1CC(F)(F)C1` [Example 247], with 10 to 50 µM.
With `CC[C@@]12CCCN1c1nc(-n3ccnc3-c3cccc(Br)c3)ncc1N(C)C2=O` [Example 252], the IC50 on GST-PLK2 was below 1 µM.
On to `CC[C@@H]1C(=O)N(C)c2cnc(-c3cc[n+]([O-])cc3)nc2N1C1CCCC1` [Example 13, (R)-4-(8-cyclopentyl-7-ethyl-5-methyl-6-oxo-5,6,7,8-tetrahydropteridin-2-yl)pyridine 1-oxide], for which the IC50 at GST-PLK1 and on GST-PLK2 was 1 to 10 µM each time.
For `CC[C@@H]1C(=O)N(C)c2cnc(N3CCN=C3c3ccccc3)nc2N1C(C)C` [Example 246, (R)-7-ethyl-8-isopropyl-5-methyl-2-(2-phenyl-4,5-dihydro-1H-imidazol-1-yl)-7,8-dihydropteridin-6(5H)-one], the 50% inhibitory concentration (IC50) at GST-PLK3 was 1 to 10 µM.
In the case of `CC[C@@H]1C(=O)N(C)c2cnc(-c3cn[nH]c3-c3nccs3)nc2N1C1CCOCC1` [Example 349], at GST-PLK3 (setting [1]), the IC50 is below 1 µM.
`CC[C@@H]1C(=O)N(C)c2cnc(-c3ccnc(O)c3)nc2N1C1CCCC1` [Example 14, (R)-8-cyclopentyl-7-ethyl-2-(2-hydroxypyridin-4-yl)-5-methyl-7,8-dihydropteridin-6(5H)-one]: the IC50 at GST-PLK1 and at GST-PLK2 was below 1 µM throughout.
Regarding `CC[C@@H]1C(=O)N(C)c2cnc(-n3ccnc3-c3ccccc3)nc2N1CCC(F)(F)F` [Example 190], the IC50 at GST-PLK3 (setting [1]) lay within 1 to 10 µM.
